{"source": "patent US20130310256A1", "about": "“HERBICIDAL COMPOSITIONS COMPRISING 4-AMINO-3-CHLORO-5-FLUORO-6-(4-CHLORO-2-FLUORO-3-METHOXYPHENYL) PYRIDINE-2-CARBOXYLIC ACID OR A DERIVATIVE THEREOF AND VLCFA AND LIPID SYNTHESIS INHIBITING HERBICIDES” (DOW AGROSCIENCES LLC, priority 2008, published 2013)", "key": {"[1]": {"system": "ECHCO", "experiment": "Example I: postemergence foliar-applied weed control, greenhouse", "format": "in vivo, Echinochloa colona (L.) Link (junglerice)", "details": "for Visual Weed Control Obs: 20 DAA", "outline": "(§1)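 Plants grown in loam/sandy loam–calcareous grit soil (80:20) in greenhouse, 14 hr photoperiod, about 29° C. day/26° C. night, treated postemergence at first to fourth true leaf stage. Foliar spray at 187 L/ha with 1.25% (v/v) crop oil concentrate; Compound A dosed on acid equivalent basis, partners on active ingredient basis.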"}, "[2]": {"system": "ECHCG", "experiment": "Example V: field trial, in-water application to transplanted rice, Niigata, Japan", "format": "in vivo, Echinochloa crus-galli", "details": "early post-emergence; for Visual Weed Control ECHCG (11 DAA) Obs / Visual Weed Control ECHCG Obs: 11 DAA", "method": "Post and pre-emergence field trials were conducted in Niigata, Japan. Trial sites were located in commercially grown fields of transplanted rice (Oryza sativa, variety: Koshihikari) using standard herbicide small plot research methodology. The trial plot size was 2 meters (m)×2 m with 3 replications. The nursery plants were grown in the greenhouse using practical methods and transplanted into the field at the 2.5-leaf stage on May 7, 2012. The row and in-row spaces were 30 cm and 17 cm, respectively. The crop was grown using normal cultural practices for fertilization, water management and maintenance to ensure good growth of the crop and the weeds.\nTreatments consisted of the benzyl ester of 4-amino-3-chloro-5-fluoro-6-(4-chloro-2-fluoro-3-methoxyphenyl)pyridine-2-carboxylic acid (Compound A) formulated as an SC (suspension concentrate) and various herbicidal components alone and in combination. Compound A benzyl ester was applied on an active ingredient basis. The herbicidal components were applied on an active ingredient basis and included very long chain fatty acid (VLCFA) synthesis-inhibiting and fatty acid/lipid biosynthesis herbicides pretilachlor formulated as a commercially available granular formulation and benfuresate formulated as a commercially available flowable formulation.\nCompound A benzyl ester SC was once diluted in 100 mL water in the 200 mL bottle/plot to achieve the desired rates and applied by water injection. Water injection applications were made by hand as evenly as possible. Pretilachlor was applied by hand, and benfuresate was applied using a pipette to achieve the desired rates. Each compound in mixture treatments was applied separately and successively. Water depth was 3 cm at application. […] Visual weed control was scored on a scale of 0 to 100 percent where 0 corresponds to no injury and 100 corresponds to complete kill.\nAll treatment results, both for the single product and mixtures, are an average of 3 replicates. The trial sites had naturally occurring populations of weeds. The weed spectrum included, but was not limited to, common barnyardgrass (Echinochloa crus-galli, ECHCG), monochoria (Monochoria vaginalis, MOOVA), Japanese bulrush (Scirpus juncoides, SCPJU), kuroguwai (Eleocharis kuroguwai, ELOKU), common falsepimpernel (Lindernia pyxidaria, LIDPY), Souchet tardif (Cyperus serotinus, CYPSE), small-flower flatsedge (Cyperus difformis, CYPDI), American waterwort (Elatine triandra, ELTTR), and swamp smartweed (Polygonum hydropiperoides, POLHP).\nColby's equation was used to determine the herbicidal effects expected from the mixtures (Colby, S. R. 1967. Calculation of the synergistic and antagonistic response of herbicide combinations. Weeds 15:20-22.).\nSome of the compounds tested, application rates employed, plant species tested, and results for submerged (weeds have not yet emerged from the flood water) weed control are given in Table 54. Some of the compounds tested, application rates employed, plant species tested, and results for early postemergence weed control are given in Tables 55-56."}, "[3]": {"system": "BRAPP", "experiment": "Example I: postemergence foliar-applied weed control, direct seeded rice weeds, greenhouse", "format": "in vivo", "details": "for Visual Weed Control Obs: 20 DAA; for Visual Weed Control (%) - 22 DAA BRAPP Obs: foliar", "outline": "as §1"}}, "note": "Values joined by “and” are separate entries in the source; they are usually repeats but may differ in a detail not shown here. Equal entries are not always repeated."}
{"molecule": "CCS(=O)(=O)Oc1ccc2c(c1)C(C)(C)CO2", "note": "[Benfuresate, 2,3-dihydro-3,3-dimethyl-5-benzofuranyl ethanesulfonate]", "values": [{"measurement": "Visual Weed Control (%) - 22 DAA ECHCO Obs", "setting": "[1]; 75 gai/ha, foliar", "value": 0, "unit": "%"}, {"measurement": "Visual Weed Control (%) - 22 DAA ECHCO Obs", "setting": "[1]; 150 gai/ha, foliar", "value": 0, "unit": "%"}, {"measurement": "Visual Weed Control (%) - 22 DAA ECHCO Obs", "setting": "[1]; 300 gai/ha, foliar", "value": 0, "unit": "%"}, {"measurement": "Visual Weed Control ECHCG (11 DAA) Obs", "setting": "[2]; 600 gai/ha", "value": 6.7, "unit": "%"}, {"measurement": "Visual Weed Control ECHCG (16 DAA) Obs", "setting": "[2]; 600 gai/ha", "value": 20.0, "unit": "%"}]}
{"molecule": "CCCOCCN(C(=O)CCl)c1c(CC)cccc1CC", "note": "[Pretilachlor, 2-chloro-N-(2,6-diethylphenyl)-N-(2-propoxyethyl)acetamide]", "values": [{"measurement": "Visual Weed Control Obs", "setting": "[1]; 37.5 gai/ha", "value": 0, "unit": "%"}, {"measurement": "Visual Weed Control Obs", "setting": "[1]; 75 gai/ha", "value": 0, "unit": "%"}, {"measurement": "Visual Weed Control Obs", "setting": "[1]; 150 gai/ha", "value": 0, "unit": "%"}, {"measurement": "Visual Weed Control ECHCG Obs", "setting": "[2]; 400 gai/ha", "value": 46.7, "unit": "%"}, {"measurement": "Visual Weed Control Obs", "setting": "[3]; 37.5 gai/ha", "value": 0, "unit": "%"}, {"measurement": "Visual Weed Control Obs", "setting": "[3]; 75 gai/ha", "value": 0, "unit": "%"}, {"measurement": "Visual Weed Control Obs", "setting": "[3]; 150 gai/ha", "value": 0, "unit": "%"}]}
{"molecule": "COc1c(Cl)ccc(-c2nc(C(=O)O)c(Cl)c(N)c2F)c1F", "note": "[Compound A Acid, 4-amino-3-chloro-6-(4-chloro-2-fluoro-3-methoxyphenyl)-5-fluoropyridine-2-carboxylic acid]", "values": [{"measurement": "Visual Weed Control (%) - 22 DAA ECHCO Obs", "setting": "[1]; 5.3 gae/ha, foliar", "value": 65, "unit": "%"}, {"measurement": "Visual Weed Control (%) - 22 DAA ECHCO Obs", "setting": "[1]; 10.6 gae/ha, foliar", "value": 65, "unit": "%"}, {"measurement": "Visual Weed Control Obs", "setting": "[1]; 4.38 gae/ha", "value": "65% and 40% and 70%"}, {"measurement": "Visual Weed Control Obs", "setting": "[1]; 8.75 gae/ha", "value": "85% and 60%"}, {"measurement": "Visual Weed Control Obs", "setting": "[3]; 4.38 gae/ha", "value": "50% and 60% and 75%"}, {"measurement": "Visual Weed Control Obs", "setting": "[3]; 8.75 gae/ha", "value": "70% and 80%"}]}
{"molecule": "CCN(CC)C(=O)n1cnc(S(=O)(=O)c2c(C)cc(C)cc2C)n1", "note": "[Cafenstrole, N,N-diethyl-3-[(2,4,6-trimethylphenyl)sulfonyl]-1H-1,2,4-triazole-1-carboxamide]", "values": [{"measurement": "Visual Weed Control Obs", "setting": "[1]; 26.25 gai/ha Himeadow WP", "value": 10, "unit": "%"}, {"measurement": "Visual Weed Control Obs", "setting": "[1]; 52.5 gai/ha Himeadow WP", "value": 10, "unit": "%"}, {"measurement": "Visual Weed Control Obs", "setting": "[1]; 105 gai/ha Himeadow WP", "value": 10, "unit": "%"}, {"measurement": "Visual Weed Control Obs", "setting": "[3]; 26.25 gai/ha Himeadow WP", "value": 0, "unit": "%"}, {"measurement": "Visual Weed Control Obs", "setting": "[3]; 52.5 gai/ha Himeadow WP", "value": 0, "unit": "%"}, {"measurement": "Visual Weed Control Obs", "setting": "[3]; 105 gai/ha Himeadow WP", "value": 0, "unit": "%"}]}
{"molecule": "COc1c(Cl)ccc(-c2nc(C(=O)OCc3ccccc3)c(Cl)c(N)c2F)c1F", "note": "[Compound A Benzyl Ester, benzyl ester of 4-amino-3-chloro-5-fluoro-6-(4-chloro-2-fluoro-3-methoxy-phenyl)pyridine-2-carboxylic acid]", "values": [{"measurement": "Visual Weed Control (%) - 22 DAA ECHCO Obs", "setting": "[1]; 5.3 gae/ha, foliar", "value": 30, "unit": "%"}, {"measurement": "Visual Weed Control (%) - 19 DAA ECHCO Obs", "setting": "[1]; 8 gae/ha, foliar", "value": 65, "unit": "%"}, {"measurement": "Visual Weed Control (%) - 20 DAA ECHCO Obs", "setting": "[1]; 8 gae/ha, foliar", "value": 40, "unit": "%"}, {"measurement": "Visual Weed Control (%) - 22 DAA ECHCO Obs", "setting": "[1]; 10.6 gae/ha, foliar", "value": 55, "unit": "%"}, {"measurement": "Visual Weed Control (%) - 20 DAA ECHCO Obs", "setting": "[1]; 16 gae/ha, foliar", "value": 60, "unit": "%"}, {"measurement": "Visual Weed Control Obs", "setting": "[1]; 4.38 gae/ha", "value": 60, "unit": "%"}, {"measurement": "Visual Weed Control Obs", "setting": "[1]; 8.75 gae/ha", "value": "85% and 70%"}, {"measurement": "Visual Weed Control (%) - 20 DAA ECHCO Obs", "setting": "[1]; 32 gae/ha, foliar", "value": 90, "unit": "%"}, {"measurement": "Visual Weed Control ECHCG (11 DAA) Obs", "setting": "[2]; 100 gai/ha", "value": 3.3, "unit": "%"}, {"measurement": "Visual Weed Control ECHCG Obs", "setting": "[2]; 100 gai/ha", "value": 6.7, "unit": "%"}, {"measurement": "Visual Weed Control ECHCG (16 DAA) Obs", "setting": "[2]; 100 gai/ha", "value": 20.0, "unit": "%"}, {"measurement": "Visual Weed Control (%) - 22 DAA BRAPP Obs", "setting": "[3]; 8 gae/ha", "value": "60% and 65%"}, {"measurement": "Visual Weed Control (%) - 22 DAA BRAPP Obs", "setting": "[3]; 16 gae/ha", "value": "60% and 80%"}, {"measurement": "Visual Weed Control Obs", "setting": "[3]; 4.38 gae/ha", "value": 60, "unit": "%"}, {"measurement": "Visual Weed Control Obs", "setting": "[3]; 8.75 gae/ha", "value": 65, "unit": "%"}, {"measurement": "Visual Weed Control (%) - 22 DAA BRAPP Obs", "setting": "[3]; 32 gae/ha", "value": "90% and 85%"}]}
